Laboratory results published in patent EP0271829A2, “Delta-hydroxy-beta-lysine derivatives and their production” (Takeda Chemical Industries, Ltd., priority 1986, dated 1988).
Values after ≈ are worked out from the molar mass of the structure shown.

Legend:
S. aureus 308A-1 [1] = assay: Antibacterial activity against gram-positive bacteria (MIC on Tripticase Soy Agar); type: cell-based; conditions: Staphylococcus aureus, 308A1, Medium: Tripticase Soy Agar, Inoculum size: 10^8 cfu/ml
From the text: (§1) Thus obtained Compound (I) is useful as medicines, for example, antibiotics against certain types of gram-positive and gram-negative beacteria. [table] [table]

S. aureus 308A-1 [2] = assay: Antibacterial activity in mice, s.c. (ED50); type: in vivo; conditions: Staphylococcus aureus, 308A1, sc
From the text: as §1

| SMILES | MIC (S. aureus 308A-1 [1]) [µg/mL] | ED50 (S. aureus 308A-1 [2]) [mg/kg] |
| --- | --- | --- |
| C/C=C\C=C\C(=O)NCC(O)CC(CC(=O)NCCC(=N)N)NC (stereo not shown) [Compound 80] | > 100 | 9.64 |
| C/C=C\C=C\C(=O)NCC(O)CC(CC(=O)NCCC(=N)N)NCC (stereo not shown) [Compound 82] | > 100 | 25 |
| C/C=C\C=C\C(=O)NCC(O)CC(CC(=O)NCCC(=N)N)NC(=O)C(N)CCCCC(=O)OC (stereo not shown) [Compound 86b] | > 100 | 25 |

More lines, main results first:

| MIC (S. aureus 308A-1 [1]) [µg/mL] | SMILES | ED50 (S. aureus 308A-1 [2]) [mg/kg] |
| --- | --- | --- |
| 100 (≈ 321 µM) | C=C/C=C/C(=O)NCC(O)CC(N)CC(=O)NCCC(=N)N (stereo not shown) [Compound 38b] | 6.25 |
| > 100 | CN(CC(=O)O)NC(=O)C[C@H](N)C[C@@H](O)CN [Negamycin, 2-(3R,5R)-3,6-diamino-5-hydroxyhexanoyl-1-methylhydrazinoacetic acid, reference compound] | 38.6 |
